From ChEMBL document CHEMBL1201862, “PubChem BioAssay data set” (2004)
The source made the active and inactive calls.

Assays:
[1] = molecular target: T1, Caspase-6 (Homo sapiens, UniProt P55212); experiment: human caspase-6 inhibitors, dose response, biochemical, VEID-R110 fluorescence, cherry-pick (AID 720632)
T1 sequence (P55212 whole entry): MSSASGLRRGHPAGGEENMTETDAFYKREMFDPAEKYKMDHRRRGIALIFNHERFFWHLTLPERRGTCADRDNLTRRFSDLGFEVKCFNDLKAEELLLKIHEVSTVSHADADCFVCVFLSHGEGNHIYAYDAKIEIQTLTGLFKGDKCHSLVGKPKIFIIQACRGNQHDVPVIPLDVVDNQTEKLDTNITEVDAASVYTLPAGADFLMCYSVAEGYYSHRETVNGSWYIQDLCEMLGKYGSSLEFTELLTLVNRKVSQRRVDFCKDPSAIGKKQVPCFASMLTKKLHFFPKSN

[2] = molecular target: T2, Endoribonuclease toxin MazF (Escherichia coli K-12, UniProt P0AE70); experiment: MazF toxin RNase activators, dose response, biochemical, fluorescence, single-stranded RNA substrate, uHTS hits (AID 588481); assay type: functional
T2 sequence (P0AE70 whole entry): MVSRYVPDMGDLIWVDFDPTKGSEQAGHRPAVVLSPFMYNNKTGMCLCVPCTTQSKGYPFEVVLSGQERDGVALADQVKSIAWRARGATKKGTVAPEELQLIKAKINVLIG

[3] = molecular target: T2, Endoribonuclease toxin MazF; experiment: fluorescent RNA oligo signal without MazF, dose response, counter-screen for MazEF activator project, biochemical, fluorescence, single-stranded RNase substrate (AID 588502); assay type: functional
[4] = miR-122 activators in hepatoma reporter cells, dose response, cell-based, Huh7 psiCHECK-miR122, Renilla luciferase, cherry-picked (AID 651956); assay type: functional;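 further: huh7 hepatoma cells stably carrying a psiCHECK-2 miR-122 sensor plasmid; renilla luciferase signal reporting endogenous miR-122 activity after 48 h compound exposure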
[5] = molecular target: Nonstructural protein 1 (Influenza A virus, UniProt Q194T2); assay type: functional, Influenza A virus (A/California/07/2009(H1N1))
[6] = molecular target: T3, fMet-Leu-Phe receptor (Homo sapiens, UniProt P21462); experiment: FPR ligands, dose response (AID 519); assay type: functional
T3 sequence (P21462 whole entry): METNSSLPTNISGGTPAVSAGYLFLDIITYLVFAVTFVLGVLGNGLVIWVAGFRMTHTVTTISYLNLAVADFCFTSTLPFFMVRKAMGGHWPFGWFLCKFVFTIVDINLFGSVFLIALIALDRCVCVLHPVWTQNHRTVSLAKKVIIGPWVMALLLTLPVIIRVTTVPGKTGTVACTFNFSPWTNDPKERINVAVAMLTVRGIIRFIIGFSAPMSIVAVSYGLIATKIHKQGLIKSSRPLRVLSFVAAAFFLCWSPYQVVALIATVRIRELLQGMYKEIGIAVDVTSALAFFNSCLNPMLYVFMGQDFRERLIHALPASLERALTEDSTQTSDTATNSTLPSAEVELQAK

[7] = cytotoxicity in HEK-293T cells, dose response, cytotoxicity control for TCR NF-kB inhibitor project, luminescence, T-cell screen hits (AID 489026); assay type: functional, cell-based;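 further: cells exposed to compound about 14 hours before the viability readout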
[8] = system: INS1; experiment: beta cell apoptosis inhibitors, cytokine rescue, dose response, luminescence, retest (AID 449756); assay type: functional, cell-based; conditions: Rattus norvegicus;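 further: cell death triggered by IL-1 beta plus TNF-alpha plus IFN-gamma mixture; protective hits raise ATP signal compared with cytokine alone wells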
[9] = molecular target: T4, COUP transcription factor 2 (Homo sapiens, UniProt P24468); experiment: Luminescence-based cell-based high throughput dose response assay to identify inhibitors of COUP-TFII (NR2F2).; assay type: functional;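 further: HEK293 cells transiently cotransfected with COUP-TFII expression vector and reporter; luciferase reporter luminescence driven by COUP-TFII from the pX2-168 reporter plasmid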
T4 sequence (P24468 whole entry): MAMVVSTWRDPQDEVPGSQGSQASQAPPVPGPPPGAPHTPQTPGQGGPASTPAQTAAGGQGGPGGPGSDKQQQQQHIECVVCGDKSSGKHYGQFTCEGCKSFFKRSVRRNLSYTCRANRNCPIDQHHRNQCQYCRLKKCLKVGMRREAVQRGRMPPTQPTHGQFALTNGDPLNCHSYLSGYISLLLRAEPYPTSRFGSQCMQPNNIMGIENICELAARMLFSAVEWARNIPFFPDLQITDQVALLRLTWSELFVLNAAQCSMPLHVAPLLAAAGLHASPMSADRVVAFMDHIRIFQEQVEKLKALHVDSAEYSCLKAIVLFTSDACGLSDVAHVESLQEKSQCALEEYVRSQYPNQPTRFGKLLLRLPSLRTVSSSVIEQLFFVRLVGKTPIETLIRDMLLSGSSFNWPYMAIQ

[10] = system: HEK293; experiment: inhibitors of LMP1-driven NF-kB reporter, dose response, cell-based, HEK293, luciferase, cherry-pick (AID 588343); assay type: functional; conditions: Homo sapiens
[11] = LGR2 antagonists, dose response, cell-based, HEK293, CRE-luciferase reporter, cherry pick, set 2 (AID 743343); assay type: functional;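 further: transfected cells were stimulated with diluted bursicon conditioned medium after compound addition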
[12] = MC4R antagonists, dose response, counter-screen for LGR2 antagonist project, cell-based, plate reader, cherry pick (AID 743444); assay type: functional;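 further: transfected HEK 293 cells stimulated with alpha-MSH peptide; potency of inhibitors of the alpha-MSH evoked signal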
[13] = inhibitors of HIV Env-driven cell fusion, dose response, cherry-pick (AID 652057); assay type: functional, cell-based
[14] = ZM109 Env clade C HIV-1 fusion inhibitors, dose response, HeLa effector, CEM target cells, luciferase, cherry-pick (AID 652058); assay type: functional, cell-based
[15] = inhibitors of clade B AD8 Env fusion, dose response, cell-based, cherry-pick (AID 652062); assay type: functional;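 further: luciferase signal from cell-cell fusion driven by HIV-1 clade B AD8 Env; potency is for inhibitors of fusion seen as a drop in luminescence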
[16] = Luminescence-based cell-based high throughput dose response assay to identify activators of the DAF-12 from the parasite S. stercoralis (ssDAF-12).; assay type: functional

Nonstructural protein 1, sequence (Q194T2 whole entry): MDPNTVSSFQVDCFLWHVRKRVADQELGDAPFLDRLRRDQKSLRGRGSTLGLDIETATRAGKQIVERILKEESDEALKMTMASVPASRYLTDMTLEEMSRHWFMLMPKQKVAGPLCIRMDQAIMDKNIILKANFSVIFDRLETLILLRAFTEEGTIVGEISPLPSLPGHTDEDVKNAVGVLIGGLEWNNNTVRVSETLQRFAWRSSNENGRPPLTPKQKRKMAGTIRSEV

For COCCN(C(=O)c1cc2c(s1)CCC2)c1c(N)n(CC(C)C)c(=O)[nH]c1=O, the AC50 [1] was 22.4 µM (active).

For COc1cc(OC)c(OC)cc1/C=C(\C#N)C(=O)NCc1cccs1, the EC50 [2] was > 99 µM (inactive) and the EC50 [3] was > 99 µM (inactive).

In the case of CCN(C[C@H]1[C@H](c2ccccc2)[C@@H](CO)N1C(=O)C1CC1)C(=O)NC1CCCC1, the AC50 [4] is reported as 47.8 µM (active).

In the case of O=C(N/N=C/c1cc(Br)c(O)c(Br)c1O)c1cccnc1, the IC50 [5] is reported as 15.5 µM (active) and the AC50 [1] is reported as 22.9 µM (active).

In the case of CCOC(=O)Nc1ccc(OC)cc1S(=O)(=O)N1CCCCC1, the Ki [6] is reported as > 66.7 µM (inactive).

In the case of Cc1ccc(S(=O)(=O)NCc2ccncc2)c(C)c1C, the IC50 [7] is reported as > 80 µM (inactive), the AC50 [8] is reported as 2.48 µM (active) and the IC50 [9] is reported as 5.99 µM (active).

With COc1ccc(-c2cc(C(=O)N3CCCC3)no2)cc1 the AC50 [10] was 3.97 µM (active), the AC50 [11] was 5.07 µM (active) and the AC50 [12] was 5.22 µM (active).

In the case of CCCC#Cc1ccc2c(c1)O[C@@H](CN(C)S(=O)(=O)c1cccc(F)c1)[C@@H](C)CN([C@@H](C)CO)S2(=O)=O, the AC50 [13] is reported as 4.98 µM (active), the AC50 [14] is reported as 3.62 µM (active) and the AC50 [15] is reported as 13.3 µM (active).

In the case of CCc1ccc[n+](-c2nc3ccccc3nc2[C-](C#N)C#N)c1, the EC50 [2] is reported as 59.2 µM (inactive) and the EC50 [3] is reported as > 99 µM (inactive).

In the case of CCC(C)N1C(=O)/C(=C\c2ccc(N3CCCCCC3)cc2)C(=O)NC1=S (centres undefined), the IC50 [16] is reported as > 67.5 µM (inactive).
